# Target: T1, AHR (Homo sapiens, UniProt P35869)
# T1 construct: A human liver cancer cell line HepG2 endogenously expressing an AHR protein; host or cells: HepG2 stably transfected with a CYP1A1-promoter firefly luciferase reporter
# T1 sequence (P35869 11-848): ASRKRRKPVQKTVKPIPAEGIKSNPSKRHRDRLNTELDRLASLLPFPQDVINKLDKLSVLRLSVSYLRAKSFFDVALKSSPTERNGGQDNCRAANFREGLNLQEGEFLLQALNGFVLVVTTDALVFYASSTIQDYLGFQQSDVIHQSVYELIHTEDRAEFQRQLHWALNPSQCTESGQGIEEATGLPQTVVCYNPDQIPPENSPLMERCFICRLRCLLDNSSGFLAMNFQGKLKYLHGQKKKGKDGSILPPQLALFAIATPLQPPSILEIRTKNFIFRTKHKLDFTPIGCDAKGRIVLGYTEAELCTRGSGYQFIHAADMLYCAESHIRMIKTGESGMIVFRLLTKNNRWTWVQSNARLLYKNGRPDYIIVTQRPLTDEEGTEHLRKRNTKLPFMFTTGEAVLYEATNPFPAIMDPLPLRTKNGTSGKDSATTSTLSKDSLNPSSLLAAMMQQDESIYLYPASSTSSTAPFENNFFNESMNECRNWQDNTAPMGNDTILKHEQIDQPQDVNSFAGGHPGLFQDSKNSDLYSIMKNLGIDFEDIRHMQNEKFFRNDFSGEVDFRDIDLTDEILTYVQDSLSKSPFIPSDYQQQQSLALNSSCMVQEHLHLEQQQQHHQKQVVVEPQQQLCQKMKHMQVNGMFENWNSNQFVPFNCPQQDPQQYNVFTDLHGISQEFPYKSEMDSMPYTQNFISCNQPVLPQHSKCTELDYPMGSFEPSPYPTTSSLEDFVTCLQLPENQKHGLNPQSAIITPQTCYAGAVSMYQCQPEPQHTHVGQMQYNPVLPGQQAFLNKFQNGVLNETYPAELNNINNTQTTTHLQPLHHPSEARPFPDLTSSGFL
# Assay: Antagonistic effect for AHR in HepG2 cells stably transfected with CYP1A1-promoter firefly luciferase reporter
# Type: cell-based
# Settings: AHR agonist-stimulated, 24 h compound treatment, average of two replicates
# Excerpt: A human liver cancer cell line HepG2 endogenously expressing an AHR protein (provided by the Stem Cell Bank of the Chinese Academy of Sciences) was adopted for testing. The expression of a CYP1A1 gene is regulated by an activity of AHR. After being activated, AHR can bind to a sequence called XRE on a CYP1A1 enhancer and initiate the expression of the CYP1A1 gene. To quantitatively determine an impact of a compound on the activity of AHR, a 1,200 bp (−1,143 to +57) regulatory sequence upstream of a promoter of the CYP1A1 gene was synthesized through gene synthesis and then inserted into a plasmid vector carrying firefly luciferase. The plasmid was then linearized through single enzyme cleavage and then transfected into HepG2 cells through lipofectin transfection (Lipofectamine 3000), and transfected HepG2 cells were screened by puromycin to obtain a stably-expressed cell line. When an antagonistic effect of a compound for AHR was tested, the expression of firefly luciferase was initiated by an AHR agonist (such as L-kynurenine, kynurenic acid, indirubin, TCDD, and 2-(1H-indol-3-ylcarbonyl)-4-thiazolecarboxylic acid methyl ester (ITE)), and cells were treated with the compound at different concentrations. Then, the inhibition on the expression of luciferase by the compound was measured.
# Stably-transfected HepG2 cells were sub-cultivated in Minimum Eagle's medium (MEM) at 37° C. and 5% carbon dioxide. In the MEM, 1 mM sodium pyruvate, 2 mM GlutaMax, 1×non- essential amino acids, 10% Australian fetal bovine serum, 100 U/mL penicillin-streptomycin, and 5 μg/mL puromycin were supplemented. Before testing, HepG2 cells were inoculated into a 96-well plate at a density of 5-8×10^4 cells/well and cultivated for 24 h to 48 h to allow a cell confluency of about 90% before a drug treatment (puromycin was not added in a medium). Before the drug treatment, AHR agonist-containing 2×compound solutions at different concentrations were prepared with a same medium, and then a half of a cell culture medium in the 96-well plate was replaced with a 2×compound solution. An AHR agonist solution including only DMSO at a corresponding concentration was set as a negative control group, and CH223191 at a corresponding concentration (commercially available) was set as a positive control group. 2 separate replicate tests were set for each compound (including a positive control and a negative control). 24 h after the compound treatment, HepG2 cells were lysed by a Steady-Glo luciferase detection system of Promega, and a luciferase signal was measured by an InfiniteM1000 Pro microplate reader of Tecan.
# In terms of data processing, for each replicate test of each compound, inhibition percentages of a compound at different concentrations on an activity of AHR were calculated sequentially with a signal of a well at a compound concentration of 0 as 100% and a cell signal of an untreated agonist as 0. Corresponding IC50 of a compound was calculated with an average value of data of two replicates according to the formula
# […], where y represents an inhibition percentage and x represents a concentration of a corresponding compound.
# IC50 for each compound was shown in Table 2, where A indicates IC50≤500 nM, B indicates 500 nM<IC50≤1.0 μM, C indicates 1 μM<IC50≤5.0 μM, and D indicates IC50>5.0 μM.
row,IC50 [nM],SMILES
1,≤ 500,CC1(C)COCCN1NC(=O)c1cc(-c2ccc(C(F)(F)F)cc2)nc(-c2cccnc2)n1 [Compound 27]
2,≤ 500,CC(C)N(NC(=O)c1cc(-c2ccc(C(F)(F)F)cc2)nc(-c2cccnc2)n1)C(=O)c1cccnc1 [Compound 68]
3,≤ 500,O=C(NN1C(=O)COCC1CO)c1cc(-c2ccc(Cl)cc2)nc(-c2cccnc2)n1 (stereo not drawn) [Compound 29]
4,500 to 1000,CC(C)N(NC(=O)c1cc(-c2ccc(C(F)(F)F)nc2)nc(-c2cccnc2)n1)C(C)CO (stereo not drawn) [Compound 60]
5,500 to 1000,O=C(NN1CCOCC1)c1cc(-c2ccc(C(F)(F)F)cc2)nc(-c2cccnc2)n1 [Compound 24]
6,≤ 500,C[C@H]1COCCN1NC(=O)c1cc(-c2ccc(Cl)cc2)nc(-c2cccnc2)n1 [Compound 8]
7,≤ 500,O=C(NN1CCOC[C@H]1CO)c1cc(-c2ccc(C(F)(F)F)cc2)nc(-c2cccnc2)n1 [Compound 42]
8,≤ 500,CN(CCO)NC(=O)c1cc(-c2ccc(Cl)cc2)nc(-c2cccnc2)n1 [Compound 17]
9,500 to 1000,CC(C)N(NC(=O)c1cc(-c2ccc(F)cc2)nc(-c2cccnc2)n1)C(C)CO (stereo not drawn) [Compound 59]
10,500 to 1000,O=C(NN1CCC[C@H]1CO)c1cc(-c2ccc(Cl)cc2)nc(-c2cccnc2)n1 [Compound 22]
11,≤ 500,CCN(CCO)NC(=O)c1cc(-c2ccc(Cl)cc2)nc(-c2cccnc2)n1 [Compound 21]
12,≤ 500,CC(=O)N(NC(=O)c1cc(-c2ccc(C(F)(F)F)cc2)nc(-c2cnn(C)c2)n1)c1cnccn1 [Compound 34]
13,≤ 500,CC(CO)NNC(=O)c1cc(-c2ccc(C(F)(F)F)cc2)nc(-c2cccnc2)n1 (stereo not drawn) [Compound 13]
14,≤ 500,CCN(NC(=O)c1cc(-c2ccc(Cl)cc2)nc(-c2cccc(F)c2)n1)C(C)CO (stereo not drawn) [Compound 54]
15,≤ 500,C[C@H]1COCCN1NC(=O)c1cc(-c2ccc(OC(F)(F)F)cc2)nc(-c2cccnc2)n1 [Compound 6]
16,≤ 500,CC1(C)COCCN1NC(=O)c1cc(-c2ccc(Cl)cc2)nc(-c2cccnc2)n1 [Compound 26]
17,500 to 1000,COc1ccc(-c2cc(C(=O)NN(C(C)C)C(C)CO)nc(-c3cccnc3)n2)cc1 (stereo not drawn) [Compound 48]
18,≤ 500,Cn1cc(-c2nc(C(=O)NN3CCOC[C@H]3CO)cc(-c3ccc(C(F)(F)F)cc3)n2)cn1 [Compound 45]
